Measured values reported in the supplement of paper PMC10307832.

Columns and labels:
Assay in all cases: relative viability (nuclei count vs DMSO), 5 days (fraction); higher = more cells survive
[1] = compound: C1CSC2=C(C(=O)N1)SC3=C2C=C(C=C3)O [kb NB 142-70] + CC(=O)Nc1cccc(-n2c(=O)n(C3CC3)c(=O)c3c(Nc4ccc(I)cc4F)n(C)c(=O)c(C)c32)c1 [Trametinib] (partner 0.02 µM)
In short: (§1)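 Lung cancer cell lines, seeded in 1536-well plates, were treated the following day by pin tool with a single drug or with five library-drug doses (not always all listed) in √10 steps on top of a fixed anchor-drug dose. Cells were fixed and nuclei stained in one step after 5 days, and nuclei were counted. Relative viability is the nuclei count for treated wells divided by that for vehicle wells, reported as medians of duplicate plates.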

[2] = compound: NCC(=O)Nc1ccc(-n2nc(C(F)(F)F)cc2-c2ccc3c(ccc4ccccc43)c2)cc1 + Cc1nc(Nc2ncc(C(=O)Nc3c(C)cccc3Cl)s2)cc(N2CCN(CCO)CC2)n1 [Dasatinib] (partner 0.075 µM)
In short: as §1

[3] = compound: NCC(=O)Nc1ccc(-n2nc(C(F)(F)F)cc2-c2ccc3c(ccc4ccccc43)c2)cc1 + CC1(C)CCC(c2ccc(Cl)cc2)=C(CN2CCN(c3ccc(C(=O)NS(=O)(=O)c4ccc(N[C@H](CCN5CCOCC5)CSc5ccccc5)c(S(=O)(=O)C(F)(F)F)c4)cc3)CC2)C1 [Navitoclax] (partner 0.5 µM)
In short: as §1

[4] = compound: C1CSC2=C(C(=O)N1)SC3=C2C=C(C=C3)O [kb NB 142-70] + CS(=O)(=O)N1CCN(Cc2cc3nc(-c4cccc5[nH]ncc45)nc(N4CCOCC4)c3s2)CC1 [Pictilisib] (partner 1 µM)
In short: as §1

[5] = compound: C1CSC2=C(C(=O)N1)SC3=C2C=C(C=C3)O [kb NB 142-70] + Nc1ncn([C@H]2C[C@H](O)[C@@H](CO)O2)c(=O)n1 [Decitabine] (partner 2 µM)
In short: as §1

Cell Line	relative viability ([1]; first compound 0.1 µM)	relative viability ([1]; first compound 1 µM)	relative viability ([1]; first compound 3.162 µM)	relative viability ([2]; first compound 0.02 µM)	relative viability ([2]; first compound 0.06325 µM)	relative viability ([2]; first compound 0.2 µM)	relative viability ([2]; first compound 0.6325 µM)	relative viability ([2]; first compound 2 µM)	relative viability ([3]; first compound 0.02 µM)	relative viability ([3]; first compound 0.06325 µM)	relative viability ([3]; first compound 0.2 µM)	relative viability ([3]; first compound 0.6325 µM)	relative viability ([3]; first compound 2 µM)	relative viability ([4]; first compound 0.1 µM)	relative viability ([4]; first compound 1 µM)	relative viability ([4]; first compound 3.162 µM)	relative viability ([5]; first compound 0.1 µM)	relative viability ([5]; first compound 1 µM)	relative viability ([5]; first compound 3.162 µM)
NCI-H520	0.69	0.618	0.386	0.207	0.206	0.177	0.213	0.212	0.979	1.17	1.34	1.05	1.08	0.297	0.282	0.165	0.506	0.43	0.357
NCI-H460	0.205	0.192	0.228	0.425	0.597	0.543	0.494	0.547	1.17	1.11	1.13	1.07	1.06	0.363	0.323	0.274	0.538	0.606	0.354
EKVX	0.357	0.378	0.296	0.554	0.6	0.648	0.527	0.488	0.902	0.969	1.07	0.971	1.03	0.413	0.465	0.438	0.369	0.311	0.364
EPLC-272H	0.275	0.274	0.295	0.35	0.406	0.351	0.357	0.671	1.25	1.07	1.15	1	1.09	0.349	0.325	0.237	0.404	0.303	0.303
NCI-H1395	1.02	0.891	1.02	0.442	0.422	0.358	0.444	0.39	1.12	1.16	1.16	1.11	1.22	0.901	0.687	0.6	0.635	0.726	0.609
NCI-H2126	0.593	0.534	0.473	0.573	0.664	0.667	0.702	0.602	0.866	0.865	0.851	0.876	0.852	0.519	0.479	0.515	0.555	0.616	0.571
LXF-289	0.668	0.662	0.69	0.188	0.246	0.315	0.218	0.241	0.918	0.977	0.943	0.954	0.861	0.739	0.737	0.749	0.392	0.369	0.365
NCI-H2009	0.284	0.29	0.263	0.314	0.332	0.327	0.279	0.305	1.12	1.15	1.27	1.11	1.13	0.857	0.814	0.564	0.371	0.38	0.375
NCI-H2405	0.604	0.596	0.643	0.225	0.202	0.185	0.201	0.221	0.848	1	0.941	0.913	0.969	0.378	0.379	0.382	0.727	0.783	0.648
NCI-H1755	0.814	0.742	0.836	0.435	0.44	0.431	0.45	0.414	1.03	1.04	1.03	1.03	0.991	0.462	0.504	0.431	0.7	0.729	0.727
HCC-78	0.683	0.823	0.838	0.466	0.432	0.357	0.425	0.429	0.854	0.868	0.729	0.715	0.908	0.213	0.216	0.181	0.683	0.727	0.677
LOU-NH91	0.754	0.785	0.657	0.577	0.601	0.536	0.558	0.541	0.74	0.755	0.722	0.673	0.804	0.526	0.505	0.41	0.83	0.854	0.61
NCI-H3122	0.229	0.225	0.274	0.862	0.837	0.824	0.912	0.799	1.04	1.01	1.03	1.01	0.984	0.578	0.649	0.551	0.487	0.371	0.419
HCC-827	0.539	0.53	0.395	0.371	0.282	0.336	0.329	0.35	0.992	1.04	1.06	1.06	1.01	0.832	1.13	0.781	0.31	0.288	0.274
SK-LU-1	0.486	0.548	0.27	0.165	0.186	0.181	0.175	0.181	0.852	0.784	1.27	0.909	0.878	0.608	0.484	0.324	0.589	0.505	0.417
NCI-H1975	0.407	0.339	0.248	0.318	0.387	0.443	0.38	0.387	1.04	1.1	1.2	1.11	0.997	0.263	0.264	0.178	0.431	0.388	0.295
